The source of these data is PubChem BioAssay (NCI).

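Assay format: 96-well plates, 48-hour exposure. GI50 = concentration required for 50% inhibition of growth. TGI marks complete inhibition of growth.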

Holding throughout (assay): growth of human tumour cells (NCI), 48 h
Assay [1] has as its system CAKI-1 renal.
Assay [2] has as its system HS 578T breast.
Assay [3] has as its system IGROV1 ovarian.
Assay [4] concerns KM12 colon.
Assay [5] deals with OVCAR-5 ovarian.
The test system of assay [6] is SF-295 CNS.
Assay [7] relates to SK-MEL-2 melanoma.
For assay [8], the system named is UO-31 renal.

Consider `C#Cc1cccc(Nc2ncnc3ccc(-c4cnc(N)nc4)cc23)c1`, for which the GI50 in assay [1] was 1.09 µM; in assay [2] it was 1.23 µM; in assay [3], 0.183 µM; in assay [4] it was 4.57 µM; in assay [5] it was 1.33 µM; in assay [6], 2.56 µM. The GI50 is 2.11 µM in assay [7] and 0.515 µM in assay [8]. Besides, the TGI in assay [1] was found to be 4.93 µM; in assay [2] it was 4.06 µM; in assay [3], 2.26 µM; in assay [4], 20.8 µM; in assay [5], 14.6 µM; in assay [6], 12.2 µM. For the same compound, the values for the TGI in assay [7] and in assay [8] were 5.72 µM and 7.75 µM, respectively.

Turning to `CCOC1Oc2ccccc2C(=O)/C1=C\Nc1ccc(C(=O)O)c(O)c1` (stereo unspecified), the GI50 in assay [1] was 20.9 µM; in assay [2], 35 µM; in assay [3], 43.9 µM; in assay [4] it was 26.3 µM; in assay [5] it was 43.2 µM; in assay [6] it was 21.9 µM. Further, the GI50 was 46.7 µM in assay [7] and 40.2 µM in assay [8]. The TGI was 44 µM in assay [1]; 90 µM in assay [2]; greater than 100 µM in assay [3]; 65 µM in assay [4]; greater than 100 µM in assay [5]; 55.4 µM in assay [6]. Also, the TGI in assay [7] and in assay [8] was greater than 100 µM each time.

In the case of `COC1/C=C/OC2(C)Oc3c(C)c(O)c4c(O)c(c(/C=N/N(c5ccccc5)c5ccccc5)c(O)c4c3C2=O)NC(=O)C(C)=C/C=C/C(C)C(O)C(C)C(O)C(C)C(OC(C)=O)C1C` (stereo unspecified), the GI50 in assay [1] was 2.42 µM; in assay [2], 1.19 µM; in assay [3], 1.85 µM; in assay [4], 1.65 µM; in assay [5] it was 2.07 µM; in assay [6], 2.18 µM. In addition, the GI50 in assay [7] was 1.84 µM; in assay [8], 3.02 µM. In addition, the TGI in assay [1] worked out at 11.2 µM; in assay [2], 4.33 µM; in assay [3], 11.5 µM; in assay [4], 6.45 µM; in assay [5], 10.9 µM; in assay [6] it was 8.82 µM. The TGI in assay [7] amounted to 7.14 µM; in assay [8] it was 12 µM.

Regarding `COc1ccc(-c2nsc3c2NC(=O)CC3c2cccc(F)c2)cc1` (stereo unspecified), the GI50 in assay [1] is 4.69 µM; in assay [2], 3.95 µM; in assay [3], 13.8 µM; in assay [4], 2.48 µM; in assay [5], 7.86 µM; in assay [6], 6.68 µM. Further, the GI50 in assay [7] was 3.3 µM; in assay [8], greater than 100 µM. In addition, the TGI in assay [1], in assay [2], in assay [3], in assay [4], in assay [5] and in assay [6] was greater than 100 µM in each case. Further, the TGI in assay [7] was 9.19 µM; in assay [8] it was greater than 100 µM.

For the compound `O=C1/C=C/[C@@H](O)[C@@H]2C[C@@H](O)C[C@H]2/C=C/CCC[C@H](CCc2ccc(NC(=S)Nc3ccc4c(c3)C(=O)OC43c4ccc(O)cc4Oc4cc(O)ccc43)cc2)O1`, the GI50 in assay [1] is 1.65 µM; in assay [2] it was 0.305 µM; in assay [3] it was 0.622 µM; in assay [4], 0.322 µM; in assay [5] it was 0.698 µM; in assay [6], 0.486 µM. For the same compound, the GI50 is 0.456 µM in assay [7] and 0.335 µM in assay [8]. In addition, the TGI in assay [1] was greater than 100 µM; in assay [2] it was greater than 100 µM; in assay [3] it was 2.69 µM; in assay [4] it was 0.971 µM; in assay [5], greater than 100 µM; in assay [6] it was greater than 100 µM. The TGI in assay [7] is 5.22 µM; in assay [8], greater than 100 µM.

With `CC(C)c1ccc(C(O)(C(=O)O)c2ccc(C(C)C)cc2)cc1`, the TGI in assay [1] was greater than 100 µM; in assay [2], greater than 100 µM; in assay [3], greater than 100 µM; in assay [4], greater than 100 µM; in assay [5], greater than 100 µM; in assay [6], 95.5 µM. In assay [8], this compound yielded a TGI greater than 100 µM.

In the case of `Oc1ccccc1/C=N\Nc1ccccc1`, the GI50 in assay [1] was 1.64 µM; in assay [3], 21.7 µM; in assay [4], 2.25 µM; in assay [5] it was 8.75 µM; in assay [6], 1.63 µM; in assay [7] it was 13.2 µM. For the same compound, the GI50 in assay [8] is 2.35 µM. The TGI in assay [1] was 21.4 µM; in assay [3], greater than 100 µM; in assay [4], greater than 100 µM; in assay [5], 39.2 µM; in assay [6] it was 8.07 µM; in assay [7] it was greater than 100 µM. The TGI in assay [8] was determined as 36.3 µM.

In the case of `CCCn1cc(/C=N\N=C2\C(=O)Nc3ccc(C)cc32)c2ccccc21`, the GI50 in assay [2] is 11.3 µM; in assay [3] it was 3.38 µM; in assay [4], 3.22 µM; in assay [5] it was 4.04 µM; in assay [6] it was 8.41 µM; in assay [7] it was 2.42 µM. Moreover, the GI50 in assay [8] was 2.28 µM. The TGI in assay [2] was greater than 100 µM; in assay [3] it was 63.1 µM; in assay [4], 19.7 µM; in assay [5], 25.8 µM; in assay [6], 96.6 µM; in assay [7], 8.03 µM. For the same compound, the TGI in assay [8] worked out at 61.8 µM.

Take `COc1cc(C(=O)c2cnc(-c3ccc4cc[nH]c4c3)[nH]2)cc(OC)c1OC`: the GI50 is 0.0503 µM in assay [1]; 0.0461 µM in assay [2]; 0.0997 µM in assay [3]; 0.0313 µM in assay [4]; 0.225 µM in assay [5]; 0.153 µM in assay [8]. The TGI in assay [1] was 4.2 µM; in assay [2] it was greater than 86.9 µM; in assay [3], 16.7 µM; in assay [4], 2.16 µM; in assay [5] it was 23.9 µM; in assay [8] it was 5.11 µM.

In the case of `Cn1c2ccccc2c2c(=O)n(CCCC(=O)NCCc3cnc[nH]3)c3c(-c4ccccc4)nnn3c21`, the GI50 in assay [1] is 12 µM; in assay [2], 10.4 µM; in assay [4] it was 8.16 µM; in assay [5] it was 10.8 µM; in assay [6] it was 9.18 µM; in assay [7], 10.3 µM. Further, the GI50 in assay [8] is 7.46 µM. Besides, the TGI amounted to 33.4 µM in assay [1]; 22.6 µM in assay [2]; 16.9 µM in assay [4]; 20.3 µM in assay [5]; 17.8 µM in assay [6]; 21 µM in assay [7]. The compound also yielded a TGI in assay [8] of 14.8 µM.
